Legend:
[1] = tested on: pain in patients; test: human clinical studies of ibogaine dosing, alleviation of pain; format: in vivo; conditions: lower dosing of ibogaine (lower end of prior-art range 0.01 to 1000 mg/kg body weight)
Procedure: While ibogaine has been disclosed for treatment of substance addiction, its use in humans is complicated by the fact that the ranges in the prior art are exceptionally broad (0.01 to 1000 mg/kg body weight).

[2] = tested on: QT interval; test: QT interval of patients treated with ibogaine; format: in vivo, human; conditions: higher dosing unacceptable
Description: A prolonged QT interval is a marker of potential Torsades de Pointes, a serious arrhythmia that can result in death.
As used herein, the term “QT interval” refers to the measure of the time between the start of the Q wave and the end of the T wave in the electrical cycle of the heart. Prolongation of the QT interval refers to an increase in the QT interval.

## CCC1CC2CC3c4[nH]c5ccc(OC)cc5c4CCN(C2)C13 (centres unmarked) [ibogaine]
[1]
  impact on the alleviation of pain in patients: minimal impact
[2]
  prolongation of the treated patient's QT interval: dose dependent prolongation

— US9561233B2, “Use of ibogaine for the treatment of pain” (DemeRX, Inc., priority 2014, dated 2017)
